Experimental data from US12540131B2 (Merck Sharp & Dohme LLC, priority 2019, dated 2026).

Target: GST tagged truncated human mutant G2019S LRRK2 (Homo sapiens (Human), UniProt Q5S007, G2019S)
Assay: LRRK2 Km ATP LanthaScreen Assay
Assay type: biochemical
Conditions: G2019S LRRK2, 134 μM ATP (Km ATP), mean values
Method in brief: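 Enzyme (GST-tagged, truncated) was preincubated with compound for 15 min at RT in 50 mM Tris pH 8.5, 10 mM MgCl2, 0.01% Brij-35, 1 mM EGTA, 2 mM DTT and 0.05 mM orthovanadate. Fluorescein-LRRKtide and 134 μM ATP (Km) were then added for 90 min. EDTA and Tb-anti-pERM antibody stopped the reaction; the TR-FRET 520/495 ratio gave 4-parameter IC50s, reported as mean pIC50.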

GST tagged truncated human mutant G2019S LRRK2, sequence (Q5S007 970-2527 G2019S): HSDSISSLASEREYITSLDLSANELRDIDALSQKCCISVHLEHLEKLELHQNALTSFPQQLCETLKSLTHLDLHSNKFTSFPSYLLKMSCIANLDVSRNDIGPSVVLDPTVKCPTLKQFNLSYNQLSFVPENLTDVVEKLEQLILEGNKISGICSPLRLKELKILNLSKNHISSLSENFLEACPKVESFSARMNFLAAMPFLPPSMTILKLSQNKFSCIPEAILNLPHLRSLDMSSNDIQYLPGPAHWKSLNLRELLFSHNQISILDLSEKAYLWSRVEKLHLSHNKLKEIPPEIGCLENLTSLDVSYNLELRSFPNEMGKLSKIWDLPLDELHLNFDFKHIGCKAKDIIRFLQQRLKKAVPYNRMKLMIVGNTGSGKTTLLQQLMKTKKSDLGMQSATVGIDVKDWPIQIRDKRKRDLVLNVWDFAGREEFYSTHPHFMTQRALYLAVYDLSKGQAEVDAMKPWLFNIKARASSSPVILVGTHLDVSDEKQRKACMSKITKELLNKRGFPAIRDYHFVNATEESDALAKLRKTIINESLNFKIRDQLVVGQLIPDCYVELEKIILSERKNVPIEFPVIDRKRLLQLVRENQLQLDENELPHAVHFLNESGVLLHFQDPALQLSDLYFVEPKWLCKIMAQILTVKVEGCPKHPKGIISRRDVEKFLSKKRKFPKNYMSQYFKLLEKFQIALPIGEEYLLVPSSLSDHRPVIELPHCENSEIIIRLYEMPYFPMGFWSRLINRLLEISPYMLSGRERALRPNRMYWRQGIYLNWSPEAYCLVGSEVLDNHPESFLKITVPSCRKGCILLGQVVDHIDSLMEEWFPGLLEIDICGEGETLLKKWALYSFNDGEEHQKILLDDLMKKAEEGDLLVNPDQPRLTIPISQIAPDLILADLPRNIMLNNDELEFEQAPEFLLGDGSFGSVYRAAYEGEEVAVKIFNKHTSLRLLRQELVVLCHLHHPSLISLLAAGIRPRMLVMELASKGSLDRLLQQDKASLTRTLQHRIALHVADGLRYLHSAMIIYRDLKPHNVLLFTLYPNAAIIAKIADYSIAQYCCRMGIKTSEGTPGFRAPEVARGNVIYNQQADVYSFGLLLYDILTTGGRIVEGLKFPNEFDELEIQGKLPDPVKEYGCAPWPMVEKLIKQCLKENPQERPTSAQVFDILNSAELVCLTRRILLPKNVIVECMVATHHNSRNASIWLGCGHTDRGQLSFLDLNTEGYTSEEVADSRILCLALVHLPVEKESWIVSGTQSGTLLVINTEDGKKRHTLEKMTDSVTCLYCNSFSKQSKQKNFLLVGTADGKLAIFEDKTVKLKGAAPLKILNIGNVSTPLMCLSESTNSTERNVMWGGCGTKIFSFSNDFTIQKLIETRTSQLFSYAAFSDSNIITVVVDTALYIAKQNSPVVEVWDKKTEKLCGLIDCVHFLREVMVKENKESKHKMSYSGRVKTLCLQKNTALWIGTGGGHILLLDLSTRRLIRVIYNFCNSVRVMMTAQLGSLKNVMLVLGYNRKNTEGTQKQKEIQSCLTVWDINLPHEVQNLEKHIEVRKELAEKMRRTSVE

| Compound | LRRK2 pIC50 |
| --- | --- |
| CC(n1ncc(Nc2ncc3cc(Cl)c([C@H]4CCN(C)C[C@@H]4F)cc3n2)c1Cl)C(C)(C)O (single isomer, unassigned) [Ex-4.68, (R)(3S,4S) or (R)(3R,4R) or (S)(3S,4S) or (S)(3R,4R) 3-(5-chloro-4-{[6-chloro-7-(3-fluoro-1-methylpiperidin-4-yl)quinazolin-2-yl]amino}-1H-pyrazol-1-yl)-2-methylbutan-2-ol] | 8.92 |
| CC(n1ncc(Nc2ncc3cc(Cl)c([C@@H]4CCN(C5COC5)C[C@H]4F)cc3n2)c1Cl)C(C)(C)O (single isomer, unassigned) [Ex-4.69, (R)(3S,4S) or (R)(3R,4R) or (S)(3S,4S) or (S)(3R,4R) 3-[5-chloro-4-({6-chloro-7-[3-fluoro-1-(oxetan-3-yl)piperidin-4-yl]quinazolin-2-yl}amino)-1H-pyrazol-1-yl]-2-methylbutan-2-ol] | 9.13 |
| CC1OCC1N1CC[C@@H](c2cc3nc(Nc4cnn(CC(C)(C)O)c4Cl)ncc3cc2Cl)[C@H](F)C1 (single isomer, unassigned) [Ex-4.70, (3S,4S)(2R,3R) or (3S,4S)(2S,3S) or (3R,4R)(2R,3R) or (3R,4R)(2S,3S) or (3R,4R)(2S,3R) or (3R,4R)(2R,3S) or (3S,4S)(2S,3R) or (3S,4S)(2R,3S) 1-[5-chloro-4-({6-chloro-7-[3-fluoro-1-(2-methyloxetan-3-yl)piperidin-4-yl]quinazolin-2-yl}amino)-1H-pyrazol-1-yl]-2-methylpropan-2-ol] | 7.92 |
| CC1OCC1N1CC[C@@H](c2cc3nc(Nc4cnn(CC(C)(C)O)c4Cl)ncc3cc2Cl)[C@H](F)C1 (single isomer, unassigned) [Ex-4.71, (3S,4S)(2R,3R) or (3S,4S)(2S,3S) or (3R,4R)(2R,3R) or (3R,4R)(2S,3S) or (3R,4R)(2S,3R) or (3R,4R)(2R,3S) or (3S,4S)(2S,3R) or (3S,4S)(2R,3S) 1-[5-chloro-4-({6-chloro-7-[3-fluoro-1-(2-methyloxetan-3-yl)piperidin-4-yl]quinazolin-2-yl}amino)-1H-pyrazol-1-yl]-2-methylpropan-2-ol] | 7.74 |
| CC1OCC1N1CC[C@H](c2cc3nc(Nc4cnn(CC(C)(C)O)c4Cl)ncc3cc2Cl)[C@@H](F)C1 (single isomer, unassigned) [Ex-4.73, (3S,4S)(2R,3R) or (3S,4S)(2S,3S) or (3R,4R)(2R,3R) or (3R,4R)(2S,3S) or (3R,4R)(2S,3R) or (3R,4R)(2R,3S) or (3S,4S)(2S,3R) or (3S,4S)(2R,3S) 1-[5-chloro-4-({6-chloro-7-[3-fluoro-1-(2-methyloxetan-3-yl)piperidin-4-yl]quinazolin-2-yl}amino)-1H-pyrazol-1-yl]-2-methylpropan-2-ol] | 9.13 |
| CC1OCC1N1CC[C@H](c2cc3nc(Nc4cnn(CC(C)(C)O)c4Cl)ncc3cc2Cl)[C@@H](F)C1 (single isomer, unassigned) [Ex-4.74, (3S,4S)(2R,3R) or (3S,4S)(2S,3S) or (3R,4R)(2R,3R) or (3R,4R)(2S,3S) or (3R,4R)(2S,3R) or (3R,4R)(2R,3S) or (3S,4S)(2S,3R) or (3S,4S)(2R,3S) 1-[5-chloro-4-({6-chloro-7-[3-fluoro-1-(2-methyloxetan-3-yl)piperidin-4-yl]quinazolin-2-yl}amino)-1H-pyrazol-1-yl]-2-methylpropan-2-ol] | 9.19 |
| CC1OCC1N1CCC(c2cc3nc(Nc4cnn(CC(C)(C)O)c4Cl)ncc3cc2Cl)CC1 (single isomer, unassigned) [Ex-4.75, (2R,3R) or (2S,3S) or (2S,3R) or (2R,3S) 1-[5-chloro-4-({6-chloro-7-[1-(2-methyloxetan-3-yl)piperidin-4-yl]quinazolin-2-yl}amino)-1H-pyrazol-1-yl]-2-methylpropan-2-ol] | 8.14 |
| CC1OCC1N1CCC(c2cc3nc(Nc4cnn(CC(C)(C)O)c4Cl)ncc3cc2Cl)CC1 (single isomer, unassigned) [Ex-4.76, (2R,3R) or (2S,3S) or (2S,3R) or (2R,3S) 1-[5-chloro-4-({6-chloro-7-[1-(2-methyloxetan-3-yl)piperidin-4-yl]quinazolin-2-yl}amino)-1H-pyrazol-1-yl]-2-methylpropan-2-ol] | >9.20 |
| Cc1cc2cnc(Nc3cnn(CC(C)(C)O)c3Cl)nc2cc1[C@@H]1CCN(C2COC2)C[C@H]1F (single isomer, unassigned) [Ex-4.81, (3S,4S) or (3R,4R) 1-[5-chloro-4-({7-[3-fluoro-1-(oxetan-3-yl)piperidin-4-yl]-6-methylquinazolin-2-yl}amino)-1H-pyrazol-1-yl]-2-methylpropan-2-ol] | 9.13 |
| Cc1cc2cnc(Nc3cnn(C4CC4)c3Cl)nc2cc1[C@@H]1CCN(C2COC2)C[C@H]1F (single isomer, unassigned) [Ex-4.82, (3S,4S) or (3R,4R) N-(5-chloro-1-cyclopropyl-1H-pyrazol-4-yl)-7-[3-fluoro-1-(oxetan-3-yl)piperidin-4-yl]-6-methylquinazolin-2-amine] | >9.20 |
| Cc1cc2cnc(Nc3cnn(CC(C)(C)O)c3Cl)nc2cc1[C@H]1CCN(C2COC2)C[C@@H]1F (single isomer, unassigned) [Ex-4.83, (3S,4S) or (3R,4R) 1-[5-chloro-4-({7-[3-fluoro-1-(oxetan-3-yl)piperidin-4-yl]-6-methylquinazolin-2-yl}amino)-1H-pyrazol-1-yl]-2-methylpropan-2-ol] | 9.14 |
| Cc1cc2cnc(Nc3cnn(C4CC4)c3Cl)nc2cc1[C@H]1CCN(C2COC2)C[C@@H]1F (single isomer, unassigned) [Ex-4.85, (3S,4S) or (3R,4R) N-(5-chloro-1-cyclopropyl-1H-pyrazol-4-yl)-7-[3-fluoro-1-(oxetan-3-yl)piperidin-4-yl]-6-methylquinazolin-2-amine] | 8.76 |
| CC1(n2ncc(Nc3ncc4cc(Cl)c([C@@H]5CCNC[C@H]5F)cc4n3)c2Cl)CC1 (single isomer, unassigned) [Ex-4.91, (3S,4S) or (3R,4R) 6-chloro-N-[5-chloro-1-(1-methylcyclopropyl)-1H-pyrazol-4-yl]-7-(3-fluoropiperidin-4-yl)quinazolin-2-amine] | >9.20 |
| CC1(n2ncc(Nc3ncc4cc(Cl)c([C@H]5CCNC[C@@H]5F)cc4n3)c2Cl)CC1 (single isomer, unassigned) [Ex-4.92, (3S,4S) or (3R,4R) 6-chloro-N-[5-chloro-1-(1-methylcyclopropyl)-1H-pyrazol-4-yl]-7-(3-fluoropiperidin-4-yl)quinazolin-2-amine] | >9.20 |
| CC1(N2CC[C@@H](c3cc4nc(Nc5cnn(C6CC6)c5Cl)ncc4cc3Cl)[C@H](F)C2)COC1 (single isomer, unassigned) [Ex-4.99, (3S,4S) or (3R,4R) 6-chloro-N-(5-chloro-1-cyclopropyl-1H-pyrazol-4-yl)-7-[3-fluoro-1-(3-methyloxetan-3-yl)piperidin-4-yl]quinazolin-2-amine] | 8.01 |
| N#CC1COCC1N1CCC(c2cc3nc(Nc4cnn(C5CC5)c4Cl)ncc3cc2Cl)CC1 (single isomer, unassigned) [Ex-4.102, (3S,4S) or (3R,4R) or (3S,4R) or (3R,4S) 4-(4-(6-chloro-2-((5-chloro-1-cyclopropyl-1H-pyrazol-4-yl)amino)quinazolin-7-yl)piperidin-1-yl)tetrahydrofuran-3-carbonitrile] | >9.20 |
| N#CC1COCC1N1CCC(c2cc3nc(Nc4cnn(C5CC5)c4Cl)ncc3cc2Cl)CC1 (single isomer, unassigned) [Ex-4.103, (3S,4S) or (3R,4R) or (3S,4R) or (3R,4S) 4-(4-(6-chloro-2-((5-chloro-1-cyclopropyl-1H-pyrazol-4-yl)amino)quinazolin-7-yl)piperidin-1-yl)tetrahydrofuran-3-carbonitrile] | 8.49 |

Same assay, conditions: G2019S LRRK2, 134 μM ATP (Km ATP), mean values; read-out: LRRK2 pIC50 (converted)

| Compound | IC50 [nM] |
| --- | --- |
| CC(n1ncc(Nc2ncc3cc(Cl)c(C4CCN(C5COC5)CC4)cc3n2)c1Cl)C(C)(C)O (single isomer, unassigned) [Ex-4.67, (S) or (R) 3-[5-chloro-4-({6-chloro-7-[1-(oxetan-3-yl)piperidin-4-yl]quinazolin-2-yl}amino)-1H-pyrazol-1-yl]-2-methylbutan-2-ol] | < 0.631 |
| CC(C)(O)Cn1ncc(Nc2ncc3cc(Cl)c(C4CCN(C5CCOC5)CC4)cc3n2)c1Cl (single isomer, unassigned) [Ex-4.77, (S) or (R) 1-[5-chloro-4-({6-chloro-7-[1-(oxolan-3-yl)piperidin-4-yl]quinazolin-2-yl}amino)-1H-pyrazol-1-yl]-2-methylpropan-2-ol] | 1.82 |
| CC(C)(O)Cn1ncc(Nc2ncc3cc(Cl)c(C4CCN(C5CCOC5)CC4)cc3n2)c1Cl (single isomer, unassigned) [Ex-4.79, (S) or (R) 1-[5-chloro-4-({6-chloro-7-[1-(oxolan-3-yl)piperidin-4-yl]quinazolin-2-yl}amino)-1H-pyrazol-1-yl]-2-methylpropan-2-ol] | < 0.631 |
| Cc1nsc(Nc2ncc3cc(Cl)c([C@@H]4CCN(C5COC5)C[C@H]4F)cc3n2)c1Cl (single isomer, unassigned) [Ex-4.87, (3S,4S) or (3R,4R) 6-chloro-N-(4-chloro-3-methyl-1,2-thiazol-5-yl)-7-[3-fluoro-1-(oxetan-3-yl)piperidin-4-yl]quinazolin-2-amine] | 12.6 |
| Cc1nsc(Nc2ncc3cc(Cl)c([C@@H]4CCN(C5COC5)C[C@H]4F)cc3n2)c1Cl (single isomer, unassigned) [Ex-4.88, (3S,4S) or (3R,4R) 6-chloro-N-(4-chloro-3-methyl-1,2-thiazol-5-yl)-7-[3-fluoro-1-(oxetan-3-yl)piperidin-4-yl]quinazolin-2-amine] | 3.8 |
